The conditions of the data set: for aqueous solubility: pH 6.8.

≈ marks a conversion by molar mass, not a printed value.

A word on the aqueous solubility: it is how much of the substance goes into solution per volume. Low readings indicate little dissolved substance, high ones much dissolved substance.

On to `N#Cc1ccc(COc2cccc(C3CCN(Cc4nc5ccc(C(=O)O)cc5n4C[C@@H]4CCO4)CC3)n2)c(F)c1`, for which the MDR1-MDCK efflux ratio turned out to be 35.5; the fraction unbound, human plasma came to 0.0253; the fraction unbound, rat plasma was 0.0205.
For the compound `NC(=O)Cn1c2ccccc2c2nc3ccccc3nc21`, the aqueous solubility is 0.15 µg/mL (≈ 0.543 µM).
Turning to `CCc1nc(C)cn2nc(-c3cc(=O)n4cc(C5CCN(C)CC5)cc(C)c4n3)cc12`, the MDR1-MDCK efflux ratio is 3.62; the fraction unbound, human plasma amounted to 0.0738; the fraction unbound, rat plasma was determined as 0.0392; the intrinsic clearance, human liver microsomes was ≤ 4.74 mL/min/kg. This compound also displayed an intrinsic clearance, rat liver microsomes of 25.7 mL/min/kg and an aqueous solubility of 17.7 µg/mL (≈ 42.4 µM).
Turning to `COc1ccc(-c2nc(NC(C)C)ncc2-c2ncc[nH]2)cc1`, the MDR1-MDCK efflux ratio amounted to 6.39; the intrinsic clearance, human liver microsomes turned out to be 26.8 mL/min/kg; the intrinsic clearance, rat liver microsomes turned out to be 1160 mL/min/kg.
Take `C[C@H]1CC[C@H](n2c3cnccc3c3cnc(Nc4ccc5c(n4)CCN(C(=O)CO)C5)nc32)CC1`: the MDR1-MDCK efflux ratio amounted to 4.93; the intrinsic clearance, human liver microsomes is 133 mL/min/kg; the intrinsic clearance, rat liver microsomes was 349 mL/min/kg.
As for `Cc1cc(N2CCC(C(=O)NC3CCCCC3)CC2)nc(-c2ccncc2)n1`, the intrinsic clearance, human liver microsomes is 67 mL/min/kg and the intrinsic clearance, rat liver microsomes was 193 mL/min/kg.
For the compound `O=C(NCCc1ccc2c(c1)OCO2)N1CCc2sccc2C1`, the MDR1-MDCK efflux ratio was 0.646; the intrinsic clearance, human liver microsomes is 164 mL/min/kg; the intrinsic clearance, rat liver microsomes amounted to 1240 mL/min/kg; the aqueous solubility turned out to be 45.5 µg/mL (≈ 138 µM).
For `COc1ccccc1CNC(=O)C(C)N1CCCN(c2ccccc2C#N)CC1` (stereo not drawn), the MDR1-MDCK efflux ratio worked out at 1.51; the intrinsic clearance, human liver microsomes is 2190 mL/min/kg; the intrinsic clearance, rat liver microsomes worked out at 4020 mL/min/kg; the aqueous solubility stood at 46.9 µg/mL (≈ 119 µM).
The like results for `COc1cc(Nc2cc(-c3cccc(C#N)c3)ccn2)ccc1N1CCN(C)CC1` were, in that order, 3.85, 5.88 mL/min/kg, 198 mL/min/kg and 45.8 µg/mL (≈ 115 µM).
The like results for `Cc1cc(F)ccc1CC(=O)N[C@@H]1CCOC[C@H]1OCCO` were, in that order, 19.7, ≤ 4.74 mL/min/kg, ≤ 10.7 mL/min/kg and 47.8 µg/mL (≈ 153 µM).
As for `N#CCCn1nc(C(F)(F)F)cc1O`, the aqueous solubility stood at 23.1 µg/mL (≈ 113 µM).
For the compound `CC(C)[C@H](O)C(=O)N[C@@H](C)C(=O)N[C@@H]1C(=O)N(C)CCc2ccccc21`, the intrinsic clearance, human liver microsomes came out at 6.33 mL/min/kg and the intrinsic clearance, rat liver microsomes was 14.2 mL/min/kg.
As to `COCCN(C)c1ccc(CN2CCOC3(CCCC3)C2)cn1`, the MDR1-MDCK efflux ratio was 0.619; the intrinsic clearance, human liver microsomes came out at 38.5 mL/min/kg; the intrinsic clearance, rat liver microsomes was 633 mL/min/kg.
Take `O=C(NCc1ccc(F)cc1)C1(Cc2ccc(-c3cccnc3)cc2)CCOCC1`: the MDR1-MDCK efflux ratio turned out to be 4.82; the intrinsic clearance, human liver microsomes was 781 mL/min/kg; the intrinsic clearance, rat liver microsomes worked out at 1970 mL/min/kg; the aqueous solubility turned out to be 87.5 µg/mL (≈ 216 µM).
For the compound `CC#CC(=O)N1CCC[C@@H]1c1nc(-c2ccc(C(=O)Nc3ccccn3)cc2)c2c(N)nccn12`, the MDR1-MDCK efflux ratio is 37.1; the fraction unbound, human plasma was found to be 0.0946; the intrinsic clearance, human liver microsomes was 73.9 mL/min/kg; the intrinsic clearance, rat liver microsomes was 275 mL/min/kg.
`CC(C)NC(=O)C1(Cc2ccccc2-c2ccncc2)CCOCC1`: the MDR1-MDCK efflux ratio worked out at 51.7; the intrinsic clearance, human liver microsomes amounted to 269 mL/min/kg; the intrinsic clearance, rat liver microsomes was found to be 981 mL/min/kg.
The like results for `CC1=C(Br)CN(CCc2nc3ccccc3c(=O)[nH]2)CC1` were, in that order, 0.856, 133 mL/min/kg and 2050 mL/min/kg.
As for `Cc1ccc(-c2cnc(N)cn2)c2cccnc12`, the MDR1-MDCK efflux ratio worked out at 0.671; the intrinsic clearance, human liver microsomes came out at 23.1 mL/min/kg; the intrinsic clearance, rat liver microsomes came out at 75.4 mL/min/kg; the aqueous solubility stood at 31.8 µg/mL (≈ 135 µM).
The like results for `Cc1ccc(C)c(S(=O)(=O)N2CCCN(C3CCC3)CC2)c1` were, in that order, 0.605, 214 mL/min/kg, 2150 mL/min/kg and 57.9 µg/mL (≈ 179 µM).
`O=C(NNc1ccccc1)c1ccncc1`: the MDR1-MDCK efflux ratio came to 0.738.
Consider `CCOc1ccc(C(=O)Cn2c(=O)n(-c3ccc(F)cc3)c3nc(C)nc(C(N)=O)c32)cc1`, for which the MDR1-MDCK efflux ratio amounted to 0.926 and the aqueous solubility is 0.39 µg/mL (≈ 0.868 µM).
For `Cc1nc2ccccc2c(C(=O)O)c1C`, the intrinsic clearance, human liver microsomes is ≤ 4.74 mL/min/kg and the intrinsic clearance, rat liver microsomes was ≤ 10.7 mL/min/kg.
For `Cc1ccc(NC(=O)c2c([O-])n(-c3ccc(C)cc3)n[n+]2Cc2ccccc2)cc1`, the MDR1-MDCK efflux ratio is 1.02 and the aqueous solubility turned out to be 0.21 µg/mL (≈ 0.527 µM).
For the compound `O=C(CCn1cncn1)N(CC#Cc1ccccc1)C1CCCC1`, the MDR1-MDCK efflux ratio came out at 1.98; the intrinsic clearance, human liver microsomes was found to be 263 mL/min/kg; the intrinsic clearance, rat liver microsomes amounted to 1350 mL/min/kg; the aqueous solubility came out at 22.5 µg/mL (≈ 69.7 µM).
The like results for `O=C(Nc1ccc2c3c(cccc13)CC2)c1ccnc(-n2cncn2)c1` were, in that order, 0.25, 124 mL/min/kg, 164 mL/min/kg and 10.7 µg/mL (≈ 31.4 µM).
`OCCN1CCC(c2ccncn2)CC1`: the MDR1-MDCK efflux ratio came out at 0.615; the intrinsic clearance, human liver microsomes was ≤ 4.74 mL/min/kg; the intrinsic clearance, rat liver microsomes amounted to 35.2 mL/min/kg; the aqueous solubility came to 37.4 µg/mL (≈ 181 µM).
For the compound `NC(=O)c1cnn(Cc2cccc(F)c2)c1`, the intrinsic clearance, human liver microsomes is ≤ 4.74 mL/min/kg and the intrinsic clearance, rat liver microsomes was ≤ 10.7 mL/min/kg.
In the case of `Cc1cnc(NCC2(CO)CCCC2)nc1N(C)C`, the MDR1-MDCK efflux ratio was 0.95; the intrinsic clearance, human liver microsomes is 29.7 mL/min/kg; the intrinsic clearance, rat liver microsomes turned out to be 1050 mL/min/kg.
`COc1ccc(NS(=O)(=O)c2ccc3c(c2)n(C)c(=O)n3C)cc1` yielded an aqueous solubility of 2.05 µg/mL (≈ 5.9 µM).
In the case of `CN(CCSc1ccc2nnc(C(F)F)n2n1)Cc1ccccc1`, the MDR1-MDCK efflux ratio came out at 0.653; the intrinsic clearance, human liver microsomes was 246 mL/min/kg; the intrinsic clearance, rat liver microsomes came out at 3180 mL/min/kg.
As for `Cn1ccnc1COc1ccc(CO)cc1`, the aqueous solubility came to 57.4 µg/mL (≈ 263 µM).
In turn, `N#Cc1nc(-c2ccccc2)oc1NCc1ccccc1` returned an intrinsic clearance, human liver microsomes of 197 mL/min/kg and an intrinsic clearance, rat liver microsomes of 2470 mL/min/kg.
As for `O=C(O)c1cnc(/C=C/c2csc(-c3ccsc3)n2)s1`, the MDR1-MDCK efflux ratio is 0.832; the intrinsic clearance, human liver microsomes turned out to be 7.87 mL/min/kg; the intrinsic clearance, rat liver microsomes worked out at 59.3 mL/min/kg; the aqueous solubility was found to be 77.5 µg/mL (≈ 242 µM).
Consider `Cc1ccc(CCC(=O)Nc2nccc3sccc23)o1`, for which the MDR1-MDCK efflux ratio was 0.465; the intrinsic clearance, human liver microsomes came to 66.2 mL/min/kg; the intrinsic clearance, rat liver microsomes amounted to 1140 mL/min/kg.
Take `NCCc1cnn(Cc2ccccc2)c1`: the intrinsic clearance, human liver microsomes is ≤ 4.74 mL/min/kg and the intrinsic clearance, rat liver microsomes was ≤ 10.7 mL/min/kg.
For the compound `CCn1ncnc1-c1[nH]cnc1-c1ccccc1`, the MDR1-MDCK efflux ratio stood at 2.19; the intrinsic clearance, human liver microsomes is ≤ 4.74 mL/min/kg; the intrinsic clearance, rat liver microsomes was determined as 48 mL/min/kg; the aqueous solubility was found to be 23 µg/mL (≈ 96.2 µM).
On to `CNCC(=O)Nc1cc(Cl)c(OCCOC)c(Cl)c1`, for which the aqueous solubility turned out to be 87.3 µg/mL (≈ 284 µM).
As for `CCS(=O)(=O)N1CC(CC#N)(n2cc(-c3ncnc4[nH]ccc34)cn2)C1`, the MDR1-MDCK efflux ratio is 202; the fraction unbound, human plasma is 0.239; the fraction unbound, rat plasma came to 1; the intrinsic clearance, human liver microsomes is ≤ 4.74 mL/min/kg. Besides, the intrinsic clearance, rat liver microsomes stood at 19.2 mL/min/kg.
Regarding `Cc1ccc(-n2c(S)nnc2-c2ccc(O)cc2)c(C)c1`, the MDR1-MDCK efflux ratio was found to be 34.6; the intrinsic clearance, human liver microsomes stood at 10.1 mL/min/kg; the intrinsic clearance, rat liver microsomes is 129 mL/min/kg; the aqueous solubility is 28.9 µg/mL (≈ 97.3 µM).
Consider `O=C(Cn1nc(Cc2ccccc2)c2ccccc2c1=O)NCCc1c[nH]cn1`, for which the MDR1-MDCK efflux ratio was found to be 34.6; the intrinsic clearance, human liver microsomes was 36.6 mL/min/kg; the intrinsic clearance, rat liver microsomes came to 597 mL/min/kg.
The compound `Cc1cc(CO)nc(N2CCCCC2)n1` gave an intrinsic clearance, human liver microsomes of 26.7 mL/min/kg and an intrinsic clearance, rat liver microsomes of 113 mL/min/kg.
On to `CCN1CCN(c2ccc(Nc3ncnc4sccc34)cc2)CC1`, for which the MDR1-MDCK efflux ratio was determined as 1.2; the intrinsic clearance, human liver microsomes was ≤ 4.74 mL/min/kg; the intrinsic clearance, rat liver microsomes was 61.9 mL/min/kg.
The like results for `O=C(Nc1ccc(N2CCCC2)cn1)c1ccc(-c2cnco2)cc1` were, in that order, 0.338, 27.2 mL/min/kg and 190 mL/min/kg.
`CN(Cc1cccc(C#N)c1)C(=O)CC(C)(C)C` came in with an aqueous solubility of 29.9 µg/mL (≈ 123 µM).
For `CC(C)(C)N1CCCN(C(=O)CNc2ccc(C#N)cc2)CC1`, the MDR1-MDCK efflux ratio was 0.887; the intrinsic clearance, human liver microsomes is ≤ 4.74 mL/min/kg; the intrinsic clearance, rat liver microsomes turned out to be 65.3 mL/min/kg; the aqueous solubility worked out at 50 µg/mL (≈ 159 µM).
`COc1ccc(Nc2nc3ccccc3c3nncn23)cc1` returned an aqueous solubility of 0.14 µg/mL (≈ 0.481 µM).
`CCc1c(-c2ccccc2)[n+]([O-])c2c([n+]1[O-])CCCCC2`: the MDR1-MDCK efflux ratio was determined as 2.95; the intrinsic clearance, human liver microsomes amounted to 8.95 mL/min/kg; the intrinsic clearance, rat liver microsomes stood at 43.4 mL/min/kg.
`COc1cc(OC)c2c(=O)cc(CCC(=O)O)oc2c1`: the intrinsic clearance, human liver microsomes is ≤ 4.74 mL/min/kg and the intrinsic clearance, rat liver microsomes was ≤ 10.7 mL/min/kg.
Regarding `O=C(CN1C(=O)CCC1=O)Nc1ccc(F)c(F)c1F`, the aqueous solubility is 50 µg/mL (≈ 175 µM).
For the compound `CCc1c(C)nn(CCNC(=O)CCc2cnccn2)c1C`, the MDR1-MDCK efflux ratio came to 23.4; the intrinsic clearance, human liver microsomes was found to be 64.5 mL/min/kg; the intrinsic clearance, rat liver microsomes came to 647 mL/min/kg.
Turning to `CC(=O)N1CCN(c2nc(C(F)(F)F)nc3sc(C)c(C)c23)CC1`, the MDR1-MDCK efflux ratio is 1.22; the fraction unbound, human plasma turned out to be 0.0136; the fraction unbound, rat plasma amounted to 0.0421; the intrinsic clearance, human liver microsomes is 43 mL/min/kg. In addition, the intrinsic clearance, rat liver microsomes is 217 mL/min/kg and the aqueous solubility is 51.3 µg/mL (≈ 143 µM).

The values are drawn from the Biogen ADME set (Fang et al. 2023).
